Reference: patent publication US7064139B2, “Method for treating retroviral infections” (Uniroyal Chemical Company, Inc., priority 2001, dated 2006)
In brackets after ≈: the same amount, converted by molar mass.

How the values were obtained:
HIV-1 (IIIB) = experiment: microbe, parasite or virus in culture; format: cell-based; conditions: for EC50 (ug/ml) HIV-1 / EC50: CEM cells, syncytium formation, day four post infection; for HIV-1 % Protection: protection of CEM cells against virus-induced cytopathicity at the concentration in the previous column; for EC50: Human immunodeficiency virus 1, IIIB, CCRF-CEM, read-out: EC50 (ug/ml) HIV-1
Outline: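 Human T-lymphoblast CEM cells at roughly 300,000 cells per ml were infected with about 100 CCID50 of HIV-1 (IIIB). Then 100 μl of the infected suspension went into 200 μl microtiter wells holding 100 μl of 5-fold serial compound dilutions. Inhibition of syncytium formation was scored microscopically on day four post infection, and protection against virus-induced cytopathicity was recorded.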

Davis strain CMV = experiment: Reduction of CMV-induced cytopathicity in HEL cells; format: cell-based, human cytomegalovirus (HCMV); conditions: HEL cells; for Antiviral EC50 (ug/ml) Davis strain CMV / EC50: virus-induced cytopathicity after seven days; for EC50: Human betaherpesvirus 5, 168 h, read-out: Antiviral EC50 (ug/ml) Davis strain CMV; for Antiviral % Inhibition Davis strain CMV: estimate of percent protection at the concentration in the previous column
Outline: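 Confluent HEL cells were infected with 100 PFU/well CMV for 1–2 h, then washed and kept in MEM with 2% FCS and test compound. EC50 is the concentration cutting virus-induced cytopathicity by 50% versus untreated control at day 7. Where cytotoxicity interfered, percent protection at the stated concentration is given.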

HIV-2 (ROD) = experiment: Inhibition of HIV-2 syncytium formation in CEM cells; format: cell-based; conditions: for EC50 (ug/ml) HIV-2 / EC50: CEM cells, syncytium formation, day four post infection; for HIV-2 % Protection: protection of CEM cells against virus-induced cytopathicity at the concentration in the previous column; for EC50: Human immunodeficiency virus 2, CCRF-CEM, read-out: EC50 (ug/ml) HIV-2
Outline: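 Human T-lymphoblast CEM cells, suspended at roughly 300,000 cells per ml of culture medium, were infected with about 100 CCID50 of HIV-2 (ROD). Aliquots of 100 μl of infected cells were placed in 200 μl microtiter wells holding 100 μl of serial 5-fold compound dilutions, and syncytium formation was scored microscopically four days after infection.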

| SMILES | EC50 (ug/ml) HIV-1 (HIV-1 (IIIB)) | HIV-1 % Protection (HIV-1 (IIIB)) | Antiviral EC50 (ug/ml) Davis strain CMV (Davis strain CMV) | EC50 (ug/ml) HIV-2 (HIV-2 (ROD)) | HIV-2 % Protection (HIV-2 (ROD)) | EC50 (HIV-1 (IIIB)) | EC50 (Davis strain CMV) | EC50 (HIV-2 (ROD)) | Antiviral % Inhibition Davis strain CMV (Davis strain CMV) |
| --- | --- | --- | --- | --- | --- | --- | --- | --- | --- |
| O=S(=O)(Cc1c(Cl)ccc(Cl)c1Cl)c1cccc[n+]1[O-] [Compound 33] | ≧4 ug/ml | 37.5% | 5.0 µg/mL | ≧4 ug/ml | 37.5% | – | – | – | – |
| Cc1ccc(C)c(CS(=O)(=O)c2ccc(Cl)c[n+]2[O-])c1 [Compound 94] | 1.90 µg/mL (≈ 6.09 µM) | – | 12.0 µg/mL | 2.6 µg/mL (≈ 8.34 µM) | – | – | – | – | – |
| Cc1cc(C)c(C[S+]([O-])c2cccc[n+]2[O-])c(C)c1 (stereo not shown) [Compound 88, 2-(2,4,6-trimethylbenzylsulfinyl)-pyridine-N-oxide] | – | – | – | – | – | 1.5 µg/mL (≈ 5.45 µM) | 25 µg/mL (≈ 90.8 µM) | 1.5 µg/mL (≈ 5.45 µM) | – |
| O=[N+]([O-])c1ccc(CS(=O)(=O)c2cccc[n+]2[O-])cc1 [Compound 14] | >4 µg/mL | 0.0% | 7.0 µg/mL | >4 µg/mL | 25.0% | – | – | – | – |
| O=S(=O)(Cc1cc2c(cc1Cl)OCO2)c1cccc[n+]1[O-] [Compound 21] | 11.70 µg/mL (≈ 35.7 µM) | – | 10.0 µg/mL | 6.3 µg/mL (≈ 19.2 µM) | – | – | – | – | – |
| COc1ccc(CS(=O)(=O)c2cccc[n+]2[O-])cc1OC [Compound 46] | ≧20 ug/ml | 37.5% | >50 µg/mL | 15.0 µg/mL (≈ 48.5 µM) | – | – | – | – | 40.0% |
| Cc1ccc(C)c(CS(=O)(=O)c2ccccn2)c1 [Compound 150] | 3.25 µg/mL (≈ 12.4 µM) | – | >50 µg/mL | 20.0 µg/mL (≈ 76.5 µM) | – | – | – | – | 20.0% |
| Cc1ccc(C)c(C(C)S(=O)(=O)c2c(Cl)ccc[n+]2[O-])c1 (racemic) [Compound 124] | >.8 µg/mL | 0.0% | >5 µg/mL | >0.80 µg/mL | 0.0% | – | – | – | 10.0% |
| CCc1ccc(CS(=O)(=O)c2cccc[n+]2[O-])cc1 [Compound 59] | 5.50 µg/mL (≈ 19.8 µM) | – | 10.0 µg/mL | 5.0 µg/mL (≈ 18 µM) | – | – | – | – | – |
| Cc1ccccc1CS(=O)(=O)c1c(C)ccc[n+]1[O-] [Compound 82] | 9.30 µg/mL (≈ 33.5 µM) | – | >5 µg/mL | ≧20 ug/ml | 37.5% | – | – | – | 0.0% |
| CCCCCCCC(c1cc(C)ccc1C)S(=O)(=O)c1cccc[n+]1[O-] (stereo not shown) [Compound 7, 2-[1-(2,5-Dimethylphenyl)octylsulfonyl]pyridine N-oxide] | – | 0.0% | – | – | 0.0% | > 0.8 µg/mL | 0.7 µg/mL (≈ 1.86 µM) | > 0.8 µg/mL | – |
| CC(C)c1cc(CS(=O)(=O)c2cccc[n+]2[O-])c(C(C)C)cc1Br [Compound 63] | 2.30 µg/mL (≈ 5.58 µM) | – | 3.7 µg/mL | 2.5 µg/mL (≈ 6.06 µM) | – | – | – | – | – |
| Cc1ccc(CS(=O)(=O)c2cccc[n+]2[O-])c(C)c1 [Compound 52] | 6.00 µg/mL (≈ 21.6 µM) | – | 12.0 µg/mL | 6.5 µg/mL (≈ 23.4 µM) | – | – | – | – | – |
| Cc1ccc2ccccc2c1CS(=O)(=O)c1cccc[n+]1[O-] [Compound 43] | ≧4 ug/ml | 37.5% | >50 µg/mL | ≧4 ug/ml | 37.5% | – | – | – | 20.0% |
| Cc1c(Cl)c(Cl)c(CS(=O)(=O)c2cccc[n+]2[O-])c(Cl)c1Cl [Compound 49] | ≧.8 ug/ml | 37.5% | 5.0 µg/mL | ≧.8 ug/ml | 37.5% | – | – | – | – |
| Cc1ccc(C)c(C(C)S(=O)(=O)c2c(C)ccc[n+]2[O-])c1 (stereo not shown) [Compound 71, 2-[1-(2,5-Dimethylphenyl)ethylsulfonyl]-3-methylpyridine N-oxide] | – | – | – | – | 0.0% | 0.05 µg/mL (≈ 0.164 µM) | 3.2 µg/mL (≈ 10.5 µM) | > 20 µg/mL | – |
| O=S(=O)(Cc1ccc(CS(=O)(=O)c2cccc[n+]2[O-])cc1)c1cccc[n+]1[O-] [Compound 23] | ≧20 ug/ml | 37.5% | >20 µg/mL | ≧20 ug/ml | 37.5% | – | – | – | 20.0% |

| SMILES | EC50 (ug/ml) HIV-1 (HIV-1 (IIIB)) | HIV-1 % Protection (HIV-1 (IIIB)) | Antiviral EC50 (ug/ml) Davis strain CMV (Davis strain CMV) | EC50 (ug/ml) HIV-2 (HIV-2 (ROD)) | HIV-2 % Protection (HIV-2 (ROD)) | EC50 (HIV-1 (IIIB)) | EC50 (Davis strain CMV) | EC50 (HIV-2 (ROD)) | Antiviral % Inhibition Davis strain CMV (Davis strain CMV) |
| --- | --- | --- | --- | --- | --- | --- | --- | --- | --- |
| O=S(=O)(Cc1ccccc1I)c1cccc[n+]1[O-] [Compound 44] | 5.30 µg/mL (≈ 14.1 µM) | – | >20 µg/mL | 3.4 µg/mL (≈ 9.06 µM) | – | – | – | – | 20.0% |
| Cc1ccc[n+]([O-])c1SCc1c(Cl)cccc1Cl [Compound 137] | >20 µg/mL | 0.0% | 28.0 µg/mL | >20.00 µg/mL | 0.0% | – | – | – | – |
| COc1cc(CS(=O)(=O)c2cccc[n+]2[O-])cc(OC)c1OC [Compound 50] | ≧20 ug/ml | 37.5% | >50 µg/mL | ≧20 ug/ml | 37.5% | – | – | – | 20.0% |
| Cc1ccc[n+]([O-])c1S(=O)(=O)Cc1ccccc1 [Compound 80] | 15.00 µg/mL (≈ 57 µM) | – | >20 µg/mL | >20.0 µg/mL | 0.0% | – | – | – | 0.0% |
| COc1ccc(CS(=O)(=O)c2cc(C(C)(C)C)cc[n+]2[O-])cc1 [Compound 135] | >20 µg/mL | 0.0% | 12.5 µg/mL | >20.00 µg/mL | 0.0% | – | – | – | – |
| Cc1ccc(C)c(CS(=O)(=O)c2cccc[n+]2[O-])c1C [Compound 41] | 5.00 µg/mL (≈ 17.2 µM) | – | 8.6 µg/mL | 4.7 µg/mL (≈ 16.1 µM) | – | – | – | – | – |
| COc1ccc(CSc2cc(CC(C)C)cc[n+]2[O-])cc1 [Compound 134] | >20 µg/mL | 0.0% | 50.0 µg/mL | >100.0 µg/mL | 0.0% | – | – | – | – |
| O=S(=O)(Cc1cccc2ccccc12)c1cccc[n+]1[O-] [Compound 13] | 6.50 µg/mL (≈ 21.7 µM) | – | >5 µg/mL | 6.0 µg/mL (≈ 20 µM) | – | – | – | – | 20.0% |
| O=S(=O)(Cc1ccccc1F)c1cccc[n+]1[O-] [Compound 22] | 12.00 µg/mL (≈ 44.9 µM) | – | 7.0 µg/mL | 6.3 µg/mL (≈ 23.6 µM) | – | – | – | – | – |
| [O-][n+]1ccccc1[S+]([O-])Cc1ccc(F)cc1 (stereo not shown) [Compound 92] | ≧20 ug/ml | 37.5% | >50 µg/mL | 4.0 µg/mL (≈ 15.9 µM) | – | – | – | – | 10.0% |
| O=S(=O)(Cc1ccc(Cl)cc1)c1cccc[n+]1[O-] [Compound 12] | 9.50 µg/mL (≈ 33.5 µM) | – | 20.0 µg/mL | 9.5 µg/mL (≈ 33.5 µM) | – | – | – | – | – |
| CCC(C)(C)c1ccc(CS(=O)(=O)c2cccc[n+]2[O-])cc1 [Compound 40, 2-(((4-(1,1-dimethyl)propyl)phenyl)methylsulfonyl)pyridine-N-oxide] | 3.10 µg/mL (≈ 9.7 µM) | – | 1.5 µg/mL | 3.4 µg/mL (≈ 10.6 µM) | – | – | – | – | – |
| Cc1ccc(C)c(C[S+]([O-])c2c(C)ccc[n+]2[O-])c1 (stereo not shown) [Compound 70] | 12.00 µg/mL (≈ 43.6 µM) | – | 11.0 µg/mL | ≧20 ug/ml | 37.5% | – | – | – | – |
| [O-][n+]1c(Cl)cccc1SCc1ccccc1 [Compound 149] | 9.00 µg/mL (≈ 35.8 µM) | – | 20.0 µg/mL | 16.0 µg/mL (≈ 63.6 µM) | – | – | – | – | – |
| Cc1cc(CS(=O)(=O)c2cccc[n+]2[O-])ccc1[N+](=O)[O-] [Compound 66] | 3.10 µg/mL (≈ 10.1 µM) | – | 5.0 µg/mL | 2.5 µg/mL (≈ 8.11 µM) | – | – | – | – | – |
| [O-][n+]1ccccc1[S+]([O-])Cc1cccc(C(F)(F)F)c1 (stereo not shown) [Compound 85] | 13.00 µg/mL (≈ 43.1 µM) | – | >50 µg/mL | 17.0 µg/mL (≈ 56.4 µM) | – | – | – | – | 20.0% |
| Cc1ccccc1CS(=O)(=O)c1cccc[n+]1[O-] [Compound 16, 2-(2-Methylphenylmethylsulfonyl)-pyridine N-oxide] | – | – | – | – | – | 11 µg/mL (≈ 41.8 µM) | 12 µg/mL (≈ 45.6 µM) | 7.5 µg/mL (≈ 28.5 µM) | – |
